Data from patent publication US9676715B2, “Bis-indolic derivatives, a process for preparing the same and their uses as a drug” (UNIVERSITE JOSEPH FOURIER, priority 2011, dated 2017).
≈ marks a conversion by molar mass, not a printed value.

Key:
[1] = test system: Staphylococcus hominis (CHUG-Shom5); assay: MIC, Staphylococcus panel (9.2); type: cell-based; conditions: S. hominis CHUG-Shom5, 4% DMSO, 18 h
Procedure: (§1) The microdilution method recommended by the Clinical and Laboratory Standard Institute [M07-A9, Vol. 32, N° 2] was used. The activity of bis-indolic compounds 3f and 4 was tested against 35 Staphylococcus bacterial strains corresponding to 12 different species,
(§2) Bacterial inocula were prepared in Mueller Hinton broth (MH2, BioMérieux, Marcy L'Etoile, France). They were dispensed in 96 well microtiter plates (5×10^5 CFU/ml of final inoculum, 192 μL per well). Indolic compounds diluted in pure DMSO (8 μL per well, concentrated 25 times) were added to the wells as to obtain two-fold serial concentrations (0.5-32 mg/L of final concentrations). The final concentration of DMSO was 4% in each well.
(§3) To avoid cross-contaminations in microtiter plates, one row was left blank between each strain tested. Microplates were incubated for 18 h at 37° C. in ambient air. Then MICs were read visually and, in case of visual reading difficulties, confirmed using a spectrophotometer at a wavelength of 630 nm (BioTek® EL808 Absorbance Microplate Reader). MICs corresponded to the minimum bis-indolic compound concentration that allowed complete visual growth inhibition of bacteria. Drug-free cultures served as growth controls.
(§4) Coagulase-negative Staphylococcus strains included three reference strains purchased from CRBIP: a methicillin-susceptible S. epidermidis strain (ATCC 12228), a methicillin-resistant S. epidermidis strain (ATCC 49461), and a methicillin-susceptible S. sciuri strain (ATCC 29061). We also used clinical strains belonging to the following coagulase-negative Staphylococcus species: S. auricularis (two strains), S. warneri (five strains), S. capitis (five strains), S. haemolyticus (four strains), S. hominis (seven strains), S. cohnii (two strains), and S. saprophyticus, S. caprae and S. simulans (one strain each). Identification of the clinical strains was obtained using VITEK® 2 System (Biomérieux). The specified strain numbers correspond to an internal number of the bacterial strain collection of our laboratory.

[2] = test system: Staphylococcus warneri (CHUG-Swar4); assay: MIC, Staphylococcus panel (9.2); type: cell-based; conditions: S. warneri CHUG-Swar4, 4% DMSO, 18 h
Procedure: as §1, §2, §3, §4

[3] = test system: Staphylococcus haemolyticus (CHUG-Shae6); assay: MIC, Staphylococcus panel (9.2); type: cell-based; conditions: S. haemolyticus CHUG-Shae6, 4% DMSO, 18 h
Procedure: as §1, §2, §3, §4

[4] = test system: Staphylococcus hominis (CHUG-Shom8); assay: MIC, Staphylococcus panel (9.2); type: cell-based; conditions: S. hominis CHUG-Shom8, 4% DMSO, 18 h
Procedure: as §1, §2, §3, §4

[5] = test system: Staphylococcus warneri (CHUG-Swar6); assay: MIC, Staphylococcus panel (9.2); type: cell-based; conditions: S. warneri CHUG-Swar6, 4% DMSO, 18 h
Procedure: as §1, §2, §3, §4

[6] = test system: Staphylococcus simulans (CHUG-Ssim1); assay: MIC, Staphylococcus panel (9.2); type: cell-based; conditions: S. simulans CHUG-Ssim1, 4% DMSO, 18 h
Procedure: as §1, §2, §3, §4

[7] = test system: Staphylococcus haemolyticus (CHUG-Shae5); assay: MIC, Staphylococcus panel (9.2); type: cell-based; conditions: S. haemolyticus CHUG-Shae5, 4% DMSO, 18 h
Procedure: as §1, §2, §3, §4

| Structure (SMILES) | MIC [1] [µg/mL] | MIC [2] [µg/mL] | MIC [3] [µg/mL] | MIC [4] [µg/mL] | MIC [5] [µg/mL] | MIC [6] [µg/mL] | MIC [7] [µg/mL] | melting point [°C] |
| --- | --- | --- | --- | --- | --- | --- | --- | --- |
| CC(C)(C)OC(=O)NCC(NC(=O)c1c[nH]c2ccc(Br)cc12)c1c[nH]c2ccc(Br)cc12 (centres unmarked) [Compound 3f, tert-Butyl(2-(5-bromo-1H-indol-3-yl)-2-(5-bromo-1H-indolyl-3-carboxamido)ethyl)carbamate] | 8 (≈ 13.9 µM) | 8 (≈ 13.9 µM) | 16 (≈ 27.8 µM) | 8 (≈ 13.9 µM) | 8 (≈ 13.9 µM) | 16 (≈ 27.8 µM) | 16 (≈ 27.8 µM) |  |
| CC(NC(=O)c1c[nH]c2ccc(Br)cc12)c1c[nH]c2ccc(Br)cc12 (centres unmarked) [Compound 4, 5-Bromo-N-(1-(5-bromo-1H-indol-3-yl)ethyl)-1H-indole-3-carboxamide] |  |  |  |  |  |  |  | 144 |
